From article PMC8611796, “Defining natural factors that stimulate and inhibit cellulose:xyloglucan hetero‐transglucosylation” (The Plant Journal, 2021)

Legend:
Type in all cases: biochemical
[1] = target: T1, EfHTG (Equisetum fluviatile hetero-trans-beta-glucanase) (Equisetum fluviatile, UniProt A0A0K2WA62); assay: radiochemical CXE assay, [3H]XXXGol incorporation; settings: read-out: % inhibition at 0.3 mM
T1 construct: gene HTG; secreted by Pichia pastoris SMD1168H; culture filtrate used; made as in Simmons et al. 2015
T1 sequence (A0A0K2WA62 22-280): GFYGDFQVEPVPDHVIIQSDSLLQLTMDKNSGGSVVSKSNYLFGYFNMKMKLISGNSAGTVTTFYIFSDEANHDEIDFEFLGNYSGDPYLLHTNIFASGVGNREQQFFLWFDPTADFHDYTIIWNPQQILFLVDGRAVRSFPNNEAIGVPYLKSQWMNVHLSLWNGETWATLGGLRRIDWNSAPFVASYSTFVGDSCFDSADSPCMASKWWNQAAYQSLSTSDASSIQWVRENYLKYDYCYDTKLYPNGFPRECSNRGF

[2] = target: T1, EfHTG (Equisetum fluviatile hetero-trans-beta-glucanase); assay: radiochemical transglucosylase assay (XET, MXE, CXE); settings: acceptor substrate; labelled compound; xyloglucan, MLG or cellulose donor; pH 5.5
[3] = target: T1, EfHTG (Equisetum fluviatile hetero-trans-beta-glucanase); assay: radiochemical CXE and MXE assay, [3H]XXXGol incorporation; settings: cellulose or MLG donor, succinate pH 5.5, 20 C, 24 h

CCCCN1C[C@H](O)[C@@H](O)[C@H](O)[C@H]1CO [N-butyldeoxynojirimycin]
inhibition at 300 µM [1]: ~50%

OC[C@@H](O)[C@@H](O[C@@H]1O[C@H](CO[C@H]2OC[C@@H](O)[C@H](O)[C@H]2O)[C@@H](O[C@@H]2O[C@H](CO[C@H]3OC[C@@H](O)[C@H](O)[C@H]3O)[C@@H](O[C@@H]3O[C@H](CO[C@H]4OC[C@@H](O)[C@H](O)[C@H]4O)[C@@H](O)[C@H](O)[C@H]3O)[C@H](O)[C@H]2O)[C@H](O)[C@H]1O)[C@H](O)[C@@H](O)CO [[3H]XXXGol]
radiochemical transglucosylase assay (XET, MXE, CXE) [2]: albeit at lower rates than onto the oligosaccharide [^3H]XXXGol

OC[C@H]1O[C@@H](O[C@H]2[C@H](O)[C@@H](O)C(O)O[C@@H]2CO)[C@H](O)[C@@H](O)[C@@H]1O (stereo partly shown) [cellobiose]
% inhibition ([3]; 0.01-80 mM inhibitor, [3H]XXXGol or [3H]XyG acceptor): Cellobiose inhibited EfHTG’s CXE activity equally whether [^3H]XXXGol or polymeric [^3H]XyG was the acceptor

OC[C@H]1O[C@@H](O[C@H]2[C@H](O)[C@@H](O)[C@H](O[C@H]3[C@H](O)[C@@H](O)[C@H](O[C@H]4[C@H](O)[C@@H](O)[C@H](O[C@H]5[C@H](O)[C@@H](O)[C@H](O[C@H]6[C@H](O)[C@@H](O)C(O)O[C@@H]6CO)O[C@@H]5CO)O[C@@H]4CO)O[C@@H]3CO)O[C@@H]2CO)[C@H](O)[C@@H](O)[C@@H]1O (stereo partly shown) [cellohexaose]
% inhibition ([3]; [3H]XXXGol acceptor): We found that cello‐oligosaccharides (C2–C6) are efficient inhibitors of Equisetum HTG

OC[C@H]1O[C@@H](O[C@H]2[C@H](O)[C@@H](O)[C@H](O[C@H]3[C@H](O)[C@@H](O)[C@H](O[C@H]4[C@H](O)[C@@H](O)[C@H](O[C@H]5[C@H](O)[C@@H](O)C(O)O[C@@H]5CO)O[C@@H]4CO)O[C@@H]3CO)O[C@@H]2CO)[C@H](O)[C@@H](O)[C@@H]1O (stereo partly shown) [cellopentaose]
% inhibition ([3]; [3H]XXXGol acceptor): We found that cello‐oligosaccharides (C2–C6) are efficient inhibitors of Equisetum HTG

OC[C@H]1O[C@@H](O[C@H]2[C@H](O)[C@@H](O)[C@H](O[C@H]3[C@H](O)[C@@H](O)[C@H](O[C@H]4[C@H](O)[C@@H](O)C(O)O[C@@H]4CO)O[C@@H]3CO)O[C@@H]2CO)[C@H](O)[C@@H](O)[C@@H]1O (stereo partly shown) [cellotetraose]
% inhibition ([3]; [3H]XXXGol acceptor): We found that cello‐oligosaccharides (C2–C6) are efficient inhibitors of Equisetum HTG

OC[C@H]1O[C@@H](O[C@H]2[C@H](O)[C@@H](O)[C@H](O[C@H]3[C@H](O)[C@@H](O)C(O)O[C@@H]3CO)O[C@@H]2CO)[C@H](O)[C@@H](O)[C@@H]1O (stereo partly shown) [cellotriose]
% inhibition ([3]; [3H]XXXGol acceptor): We found that cello‐oligosaccharides (C2–C6) are efficient inhibitors of Equisetum HTG
